# According to patent US9522914B2, “Azole derivative” (TAISHO PHARMACEUTICAL CO., LTD, priority 2011, dated 2016):
# Molecular target: Human V1b receptor (Homo sapiens (Human), UniProt P47901)
# Experiment: Binding Test for V1b Receptor ([3H]AVP, crude membrane preparation of 293FT cells)
# Conditions: inhibition of [3H]AVP binding (0.4 to 1 nmol/L), room temperature, 60 minutes
# Method in brief: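 Crude membranes from 293FT cells transiently expressing human V1b, incubated with [3H]AVP (0.4 to 1 nmol/L) and compound (0.01 nmol/L–1 μmol/L final) in Tris pH 7.4 with MgCl2 and 0.1% BSA, 60 min at room temperature. Bound label collected by filtration. Nonspecific binding defined with unlabeled AVP; IC50 from dose-response curve.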
# Human V1b receptor, sequence (P47901 whole entry): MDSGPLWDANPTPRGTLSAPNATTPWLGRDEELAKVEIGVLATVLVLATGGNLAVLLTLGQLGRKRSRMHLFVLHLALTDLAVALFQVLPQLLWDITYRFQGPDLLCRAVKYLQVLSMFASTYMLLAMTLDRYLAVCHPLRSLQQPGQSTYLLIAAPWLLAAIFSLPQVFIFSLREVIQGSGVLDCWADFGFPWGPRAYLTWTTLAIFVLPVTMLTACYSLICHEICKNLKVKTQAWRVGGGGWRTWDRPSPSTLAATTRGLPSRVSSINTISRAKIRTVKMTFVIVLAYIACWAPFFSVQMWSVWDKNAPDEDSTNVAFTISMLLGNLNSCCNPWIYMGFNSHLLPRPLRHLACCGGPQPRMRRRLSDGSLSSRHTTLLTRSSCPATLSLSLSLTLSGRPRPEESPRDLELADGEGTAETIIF
row,IC50 [nM],SMILES
1,14,"CC(C)NC(=O)Cc1nc(-c2ccc(CCN3CCOCC3)cc2)nn1-c1cccc(Cl)c1 [Example C-21, 2-[1-(3-chlorophenyl)-3-{4-[2-(morpholin-4-yl)ethyl]phenyl}-1H-1,2,4-triazol-5-yl]-N-(propan-2-yl)acetamide]"
2,10 to 100,"COc1cccc(-c2nc(-c3ccc(CCN4CCCC4)cc3)nn2CC(=O)NC(C)C)c1 [Example B-21, 2-[5-(3-methoxyphenyl)-3-{4-[2-(pyrrolidin-1-yl)ethyl]phenyl}-1H-1,2,4-triazol-1-yl]-N-(propan-2-yl)acetamide]"
3,10 to 100,"COc1cccc(-c2nc(-c3ccc(CCN4CCC(C(F)(F)F)CC4)cc3)nn2CC(=O)NC(C)C)c1 [Example B-38, 2-[5-(3-methoxyphenyl)-3-(4-{2-[4-(trifluoromethyl)piperidin-1-yl]ethyl}phenyl)-1H-1,2,4-triazol-1-yl]-N-(propan-2-yl)acetamide]"
4,10 to 100,"CC(C)NC(=O)Cc1nn(-c2ccc(CCN3CC4(CCOCC4)C3)cc2)c(=O)n1-c1cccc(Cl)c1 [Example D-56, 2-[4-(3-chlorophenyl)-1-{4-[2-(7-oxa-2-azaspiro[3.5]non-2-yl)ethyl]phenyl}-5-oxo-4,5-dihydro-1H-1,2,4-triazol-3-yl]-N-(propan-2-yl)acetamide]"
5,4.4,"CC(C)NC(=O)Cc1nn(-c2ccc(CCN3CCOCC3)cc2)c(=O)n1-c1ccc(F)c(Cl)c1 [Example D-26, 2-[4-(3-chloro-4-fluorophenyl)-1-{4-[2-(morpholin-4-yl)ethyl]phenyl}-5-oxo-4,5-dihydro-1H-1,2,4-triazol-3-yl]-N-(propan-2-yl)acetamide]"
6,27,"CC(C)NC(=O)Cc1nc(-c2ccc(CCN3CCOCC3)cc2)oc1-c1cccc(Cl)c1 [Example C-09, 2-[5-(3-chlorophenyl)-2-{4-[2-(morpholin-4-yl)ethyl]phenyl}-1,3-oxazol-4-yl]-N-(propan-2-yl)acetamide]"
7,27,"COc1cccc(-c2nc(-c3ccc(CCN4CCOCC4)cc3)cn2CC(=O)NC(C)C)n1 [Example A-29, 2-[2-(6-methoxypyridin-2-yl)-4-{4-[2-(morpholin-4-yl)ethyl]phenyl}-1H-imidazol-1-yl]-N-(propan-2-yl)acetamide]"
8,22,"CC(C)NC(=O)Cc1nc(-c2ccc(CCN3CC4(COC4)C3)cc2)sc1-c1cccc(Cl)c1 [Example C-15, 2-[5-(3-chlorophenyl)-2-{4-[2-(2-oxa-6-azaspiro[3.3]hept-6-yl)ethyl]phenyl}-1,3-thiazol-4-yl]-N-(propan-2-yl)acetamide]"
9,100 to 1000,"COc1cc(-c2nc(-c3ccc(CCN4CCOCC4)cc3)cn2CC(=O)NC(C)C)ccn1 [Example A-41, 2-[2-(2-methoxypyridin-4-yl)-4-{4-[2-(morpholin-4-yl)ethyl]phenyl}-1H-imidazol-1-yl]-N-(propan-2-yl)acetamide]"
10,10 to 100,"CC(C)NC(=O)Cc1cn(-c2ccc(CCN3CC4(COC4)C3)cc2)nc1-c1cccc(Cl)c1 [Example C-04, 2-[3-(3-chlorophenyl)-1-{4-[2-(2-oxa-6-azaspiro[3.3]hept-6-yl)ethyl]phenyl}-1H-pyrazol-4-yl]-N-(propan-2-yl)acetamide]"
11,5.1,"CC(C)(C)NC(=O)Cn1nc(-c2ccc(CCN3CCOCC3)cn2)nc1-c1cccc(Cl)c1 [Example B-11, N-tert-butyl-2-[5-(3-chlorophenyl)-3-{5-[2-(morpholin-4-yl)ethyl]pyridin-2-yl}-1H-1,2,4-triazol-1-yl]acetamide]"
12,0.16,"CC(C)NC(=O)Cn1cc(-c2ccc(CC(C)N3CCOCC3)cc2)nc1-c1cccc(Cl)c1 (stereo not drawn) [Example A-44, 2-[2-(3-chlorophenyl)-4-{4-[2-(morpholin-4-yl)propyl]phenyl}-1H-imidazol-1-yl]-N-(propan-2-yl)acetamide]"
13,10 to 100,"COc1cccc(-c2nc(-c3ccc(CCN4C(C)COCC4C)cc3)nn2CC(=O)NC(C)C)c1 (stereo not drawn) [Example B-41, 2-[3-{4-[2-(3,5-dimethylmorpholin-4-yl)ethyl]phenyl}-5-(3-methoxyphenyl)-1H-1,2,4-triazol-1-yl]-N-(propan-2-yl)acetamide]"
14,100 to 1000,"COc1cccc(-c2nc(-c3ccc(CCN4CCC(C#N)CC4)cc3)nn2CC(=O)NC(C)C)c1 [Example B-24, 2-[3-{4-[2-(4-cyanopiperidin-1-yl)ethyl]phenyl}-5-(3-methoxyphenyl)-1H-1,2,4-triazol-1-yl]-N-(propan-2-yl)acetamide]"
15,10 to 100,"CC(C)NC(=O)Cn1cc(-c2ccc(CCN3CCCC(O)C3)cc2)nc1-c1cccc(Cl)c1 (stereo not drawn) [Example A-05, 2-[2-(3-chlorophenyl)-4-{4-[2-(3-hydroxypiperidin-1-yl)ethyl]phenyl}-1H-imidazol-1-yl]-N-(propan-2-yl)acetamide]"
16,100 to 1000,"CC(C)NC(=O)Cc1nn(-c2ccc(CCN3CCC(C)(O)CC3)cc2)c(=O)n1-c1cccc(Cl)c1 [Example D-55, 2-[4-(3-chlorophenyl)-1-{4-[2-(4-hydroxy-4-methylpiperidin-1-yl)ethyl]phenyl}-5-oxo-4,5-dihydro-1H-1,2,4-triazol-3-yl]-N-(propan-2-yl)acetamide]"
17,10 to 100,"COc1cccc(-c2nc(-c3ccc(CCN4CCC(F)CC4)cc3)nn2CC(=O)NC(C)C)c1 [Example B-39, 2-[3-{4-[2-(4-fluoropiperidin-1-yl)ethyl]phenyl}-5-(3-methoxyphenyl)-1H-1,2,4-triazol-1-yl]-N-(propan-2-yl)acetamide]"
18,8.6,"CC(C)NC(=O)Cc1cn(-c2ccc(CCN3CCOCC3)cc2)nc1-c1cccc(Cl)c1 [Example C-03, 2-[3-(3-chlorophenyl)-1-{4-[2-(morpholin-4-yl)ethyl]phenyl}-1H-pyrazol-4-yl]-N-(propan-2-yl)acetamide]"
19,21,"CC(C)NC(=O)Cc1nn(-c2ccc(CCN3CCCCC3)cc2)cc1-c1cccc(Cl)c1 [Example C-01, 2-[4-(3-chlorophenyl)-1-{4-[2-(piperidin-1-yl)ethyl]phenyl}-1H-pyrazol-3-yl]-N-(propan-2-yl)acetamide]"
20,10 to 100,"CC(C)NC(=O)Cn1cc(-c2ccc(CCN3CC4(COC4)C3)cc2)nc1-c1cccc(Cl)c1 [Example A-03, 2-[2-(3-chlorophenyl)-4-{4-[2-(2-oxa-6-azaspiro[3.3]hept-6-yl)ethyl]phenyl}-1H-imidazol-1-yl]-N-(propan-2-yl)acetamide]"
21,100 to 1000,"COc1cccc(-c2nc(-c3ccc(CCN4CCC(C(N)=O)CC4)cc3)nn2CC(=O)NC(C)C)c1 [Example B-34, 1-[2-(4-{5-(3-methoxyphenyl)-1-[2-oxo-2-(propan-2-ylamino)ethyl]-1H-1,2,4-triazol-3-yl}phenyl)ethyl]piperidine-4-carboxamide]"
22,10 to 100,"CC(C)NC(=O)Cn1cc(-c2ccc(CCN3CCC(O)C3)cc2)nc1-c1cccc(Cl)c1 (stereo not drawn) [Example A-06, 2-[2-(3-chlorophenyl)-4-{4-[2-(3-hydroxypyrrolidin-1-yl)ethyl]phenyl}-1H-imidazol-1-yl]-N-(propan-2-yl)acetamide]"
23,14,"CC(C)NC(=O)Cc1nc(-c2ccc(CCN3CCOCC3)cc2)sc1-c1cccc(Cl)c1 [Example C-14, 2-[5-(3-chlorophenyl)-2-{4-[2-(morpholin-4-yl)ethyl]phenyl}-1,3-thiazol-4-yl]-N-(propan-2-yl)acetamide]"
24,21,"CC(C)NC(=O)Cc1cc(-c2ccc(CCN3CCOCC3)cc2)nn1-c1cccc(Cl)c1 [Example C-05, 2-[1-(3-chlorophenyl)-3-{4-[2-(morpholin-4-yl)ethyl]phenyl}-1H-pyrazol-5-yl]-N-(propan-2-yl)acetamide]"

row,SMILES,IC50 [nM]
1,"COc1cccc(-n2c(CC(=O)NC(C)C)nn(-c3ccc(CCN4C5CCC4COC5)cn3)c2=O)c1 [Example D-40, 2-[4-(3-methoxyphenyl)-1-{5-[2-(3-oxa-8-azabicyclo[3.2.1]oct-8-yl)ethyl]pyridin-2-yl}-5-oxo-4,5-dihydro-1H-1,2,4-triazol-3-yl]-N-(propan-2-yl)acetamide]",100 to 1000
2,"COc1cccc(-n2c(CC(=O)NC(C)(C)C)nn(-c3ccc(CCN4C5CCC4COC5)cn3)c2=O)c1 [Example D-09, N-tert-butyl-2-[4-(3-methoxyphenyl)-1-{5-[2-(3-oxa-8-azabicyclo[3.2.1]oct-8-yl)ethyl]pyridin-2-yl}-5-oxo-4,5-dihydro-1H-1,2,4-triazol-3-yl]acetamide]",10 to 100
3,"CC(C)NC(=O)Cn1nc(-c2ccc(CCN3C4CCC3COC4)cc2)nc1-c1cccc(Cl)c1 [Example B-01, 2-[5-(3-chlorophenyl)-3-{4-[2-(3-oxa-8-azabicyclo[3.2.1]oct-8-yl)ethyl]phenyl}-1H-1,2,4-triazol-1-yl]-N-(propan-2-yl)acetamide]",1.4
4,"CC(C)NC(=O)Cc1nn(-c2ccc(CCN3C4CCC3COC4)cc2)c(=O)n1-c1ccc(F)c(Cl)c1 [Example D-27, 2-[4-(3-chloro-4-fluorophenyl)-1-{4-[2-(3-oxa-8-azabicyclo[3.2.1]oct-8-yl)ethyl]phenyl}-5-oxo-4,5-dihydro-1H-1,2,4-triazol-3-yl]-N-(propan-2-yl)acetamide]",5.3
5,"COc1cc(-n2c(CC(=O)NC(C)C)nn(-c3ccc(CCN4C5CCC4COC5)c(OC)c3)c2=O)ccc1F [Example D-41, 2-[4-(4-fluoro-3-methoxyphenyl)-1-{3-methoxy-4-[2-(3-oxa-8-azabicyclo[3.2.1]oct-8-yl)ethyl]phenyl}-5-oxo-4,5-dihydro-1H-1,2,4-triazol-3-yl]-N-(propan-2-yl)acetamide]",2.7
6,"CC(C)NC(=O)Cc1nn(-c2ccc(CCN3C4CCC3COC4)c(F)c2)c(=O)n1-c1cccc(Cl)c1 [Example D-21, 2-[4-(3-chlorophenyl)-1-{3-fluoro-4-[2-(3-oxa-8-azabicyclo[3.2.1]oct-8-yl)ethyl]phenyl}-5-oxo-4,5-dihydro-1H-1,2,4-triazol-3-yl]-N-(propan-2-yl)acetamide]",7.5
